Patent publication US8034580B2, “Determining presence of antibiotic in a fluid” (DSM IP Assets B.V., priority 2003, dated 2011)

Tests used:
Format in all cases: cell-based
[1] = test system: microorganism of Delvotest® MCS test medium; assay: Delvotest MCS microbial inhibition test, sensitivity for different antibiotics, plate test or tube test (Example 2)
Protocol: […] The sensitivity for different antibiotics was determined by investigating two sets of six experiments using either a plate test or a tube test system. The sensitivity was determined by reading the test at the moment at which an antibiotic-free control changed color.

[2] = test system: microorganism of Delvotest® MCS test medium; assay: Production scale Delvotest MCS microbiological inhibition test, sensitivity for different antibiotics (Example 4)
Protocol: Two series of test systems were prepared on production scale. The first series is a commercially available Delvotest® MCS and the second series is as the first with Bromocresol Purple replaced with Bromothymol Blue (160 mg·l^−1). The sensitivity for different antibiotics was determined reading the test at the moment at which an antibiotic-free control changed color. The results are in the Table below (sensitivity values in ppb).

[3] = test system: microorganism of Delvotest® MCS test medium; assay: Delvotest MCS microbial inhibition test, sensitivity for penicillin G (Example 1)
Protocol: Commercially available Delvotest® MCS, prepared according to the methods described in EP 0005891, was adapted by the replacement of the indicator Bromocresol Purple by Bromothymol Blue (160 mg·l^−1). The sensitivity for penicillin G was determined by investigating samples containing different concentrations of penicillin G in different test systems. The results are summarized in the Table below (sensitivity values in ppb).

[4] = test system: microorganism of Delvotest® MCS test medium; assay: Delvotest MCS type test systems with equal indicator concentration, sensitivity for penicillin G (Example 3)
Protocol: Two test systems were prepared. The first system differs only from a commercially available Delvotest® MCS in that the concentration of Bromocresol Purple is 160 mg·l^−1, and the second series is as the first with Bromocresol Purple replaced with Bromothymol Blue (160 mg·l^−1). The sensitivity for penicillin G was determined reading the test at the moment at which an antibiotic-free control changed color. From the results as shown in the Table below (sensitivity values in ppb) it can be seen that the sensitivity of Bromothymol Blue is better then that of Bromocresol Purple at the same concentrations of indicator.

[5] = indicator Bromocresol Purple (BP), experiment # 0
[6] = indicator Bromothymol Blue (160 mg·l^−1), plate test, experiment # 1
[7] = indicator Bromothymol Blue (160 mg·l^−1), plate test, experiment # 2
[8] = indicator Bromothymol Blue (160 mg·l^−1), plate test, experiment # 3
[9] = indicator Bromothymol Blue (160 mg·l^−1), plate test, experiment # 4
[10] = indicator Bromothymol Blue (160 mg·l^−1), plate test, experiment # 5
[11] = indicator Bromothymol Blue (160 mg·l^−1), plate test, experiment # 6
[12] = indicator Bromothymol Blue (160 mg·l^−1), tube test, experiment # 7
[13] = indicator Bromothymol Blue (160 mg·l^−1), tube test, experiment # 8
[14] = indicator Bromothymol Blue (160 mg·l^−1), tube test, experiment # 9
[15] = indicator Bromothymol Blue (160 mg·l^−1), tube test, experiment # 10
[16] = indicator Bromothymol Blue (160 mg·l^−1), tube test, experiment # 11
[17] = indicator Bromothymol Blue (160 mg·l^−1), tube test, experiment # 12
[18] = indicator Bromocresol Purple, Batch #1, three weeks after production
[19] = indicator Bromothymol Blue (160 mg·l^−1), Batch #1, three weeks after production

Compound | sensitivity [1, 5] [ppb] | sensitivity [1, 6] [ppb] | sensitivity [1, 7] [ppb] | sensitivity [1, 8] [ppb] | sensitivity [1, 9] [ppb] | sensitivity [1, 10] | sensitivity [1, 11] | sensitivity [1, 12] [ppb] | sensitivity [1, 13] [ppb] | sensitivity [1, 14] [ppb] | sensitivity [1, 15] [ppb] | sensitivity [1, 16] [ppb] | sensitivity [1, 17] [ppb] | sensitivity [2, 18] [ppb] | sensitivity [2, 19] [ppb] | further results
CC1(C)S[C@@H]2[C@H](NC(=O)[C@H](N)c3ccccc3)C(=O)N2[C@H]1C(=O)O [Ampicillin] | 8 | 2 | 2 | 2 | 2 | 2 ppb | 2 ppb | 2 | 2 | 2 | 2 | 2 | 2 | 6 | 2 | –
CC1(C)S[C@@H]2[C@H](NC(=O)Cc3ccccc3)C(=O)N2[C@H]1C(=O)O [Penicillin G] | 3 | 1 | 2 | 1 | 1 | 1-2 ppb | 1 ppb | 2 | 2 | 2 | 2 | 2 | 2 | 3 | 2 | sensitivity ([3]; indicator Bromocresol Purple, Penicillin G concentrations of 0, 1, 2, 3 and 4 ppb investigated): 3 ppb; sensitivity ([3]; indicator Bromocresol Purple, Penicillin G concentrations of 0, 2, 4 and 6 ppb investigated): 4 ppb; sensitivity ([3]; indicator Bromothymol Blue (160 mg·l^−1), Penicillin G concentrations of 0, 1, 2, 3 and 4 ppb investigated): 2 ppb; sensitivity ([3]; indicator Bromothymol Blue (160 mg·l^−1), Penicillin G concentrations of 0, 2, 4 and 6 ppb investigated): 2 ppb; sensitivity ([4]; indicator Bromocresol Purple (160 mg·l^−1)): 3 ppb; sensitivity ([4]; indicator Bromothymol Blue (160 mg·l^−1)): 2 ppb; sensitivity ([2]; indicator Bromocresol Purple, Batch #1, immediately after production): 3 ppb; sensitivity ([2]; indicator Bromothymol Blue (160 mg·l^−1), Batch #1, immediately after production): 2 ppb
Cc1onc(-c2ccccc2Cl)c1C(=O)N[C@@H]1C(=O)N2[C@@H]1SC(C)(C)[C@@H]2C(=O)O [Cloxacillin] | 40 | 10 | 10 | 10 | 10 | 10 ppb | 10 ppb | 20 | 20 | 20 | 20 | 20 | 20 | 40 | 20 | –
Neomycin | 600 | 100 | 100 | 100 | 100 | 100 ppb | 100 ppb | 200 | 200 | 200 | 200 | 200 | 200 | 400 | 200 | –
CC1(C)S[C@@H]2[C@H](NC(=O)[C@H](N)c3ccc(O)cc3)C(=O)N2[C@H]1C(=O)O [Amoxicillin] | 8 | 4 | 2 | 2 | 2 | 2-4 ppb | 2 ppb | 4 | 4 | 4 | 4 | 4 | 4 | 8 | 4 | –
CC(=O)OCC1=C(C(=O)O)N2C(=O)[C@@H](NC(=O)CSc3ccncc3)[C@H]2SC1 [Cephapirin] | 8 | 2 | 2 | 4 | 6 | 2 ppb | 4-6 ppb | 4 | 4 | 4 | 4 | 4 | 4 | 8 | 4 | –
Nc1ccc(S(=O)(=O)Nc2ncccn2)cc1 [Sulfadiazine] | 50 | 50 | 50 | 50 | 50 | 50 ppb | 50 ppb | 50 | 50 | 50 | 50 | 50 | 50 | – | – | sensitivity with Bromothymol Blue in comparison with Bromocresol purple ([1]; comparison of the two indicators, in words): identical
